Values after ≈ are worked out from the molar mass of the structure shown.
Legend:
[1] = tested on: C. aahli; assay: organism not typed; set-up: Broth microdilution MIC (Sensititre plates, ARIS 2X) against soil bacterial isolates; settings: soil
Text: (§1) Six Stenotrophomonas maltophilia and eight Chryseobacterium spp. antibiotic-resistant isolates were used for genomic library construction; all bacteria were isolated from farming field soil in Lithuania during the year 2016 [17, 65]. The isolates were designated as resistant if the MIC of antibiotic value matched EUCAST clinical breakpoints (v. 7.0, 2017, PK/PD (non-species related). Species were identified by matching obtained sequences with a sequence showing the highest maximum identity score from the GenBank database. If the identity of the best match was <99% and the query cover was <96%, only the genus was assigned. All environmental isolates were grown in LB medium at 28 °C. The bacteria were isolated from three farming fields in Lithuania during the year 2016 [17]. The sample collection points represented two different types of farming, i.e., organic and conventional (intensive); in all cases, the type of the soil was sandy loam. The organic farming sites were known not to use inorganic fertilizers or pesticides for a time period of over 20 years and were fertilized only with organic fertilizers (farmyard manure and slurry). Identification of bacterial isolates was based on 16S rRNA fragment sequencing as described previously. All six isolates of S. maltophilia were collected from a conventional winter wheat farming field. Antibiotic-resistant Chryseobacterium spp. isolates were recovered from various fields (conventional winter wheat, conventional rapeseed, and organic rapeseed). Two of the isolates were identified as C. aahli, and another two were identified as C. soldanellicola; for four of the isolates, only the genus could be assigned as Chryseobacterium spp. All selected isolates of S. maltophilia and Chryseobacterium spp. were resistant to at least two classes of antibiotics (β-lactams, aminoglycosides, and/or fluoroquinolones) (Table S1).

[2] = tested on: C. soldanellicola; assay: organism not typed; set-up: Broth microdilution MIC (Sensititre plates, ARIS 2X) against soil bacterial isolates; settings: soil
Text: as §1

[3] = tested on: Chryseobacterium sp.; assay: microbe, parasite or virus in culture; set-up: Broth microdilution MIC (Sensititre plates, ARIS 2X) against soil bacterial isolates; settings: Chryseobacterium
Text: as §1

[4] = tested on: S. maltophilia; assay: microbe, parasite or virus in culture; set-up: Broth microdilution MIC (Sensititre plates, ARIS 2X) against soil bacterial isolates; settings: Stenotrophomonas maltophilia
Text: as §1

[5] = tested on: T1, CHM; assay: UV-Vis spectrophotometry, initial hydrolysis rates, […] nm; type: biochemical, Chryseobacterium sp.; settings: 50 mM HEPES pH 7.0, 50 µM ZnCl2, 22 °C
T1 construct: signal peptide removed; pET-28b (NcoI) in E. coli BL21 Tuner (DE3); no tag mentioned

[6] = tested on: T2, IND-17; assay: as above; type: biochemical, Chryseobacterium sp.; settings: 50 mM HEPES pH 7.0, 50 µM ZnCl2, 22 °C
T2 construct: signal peptide removed; pET-28b (NcoI) in E. coli BL21 Tuner (DE3); no tag mentioned

[7] = tested on: T1, CHM; assay: as above; type: biochemical, Chryseobacterium sp.; settings: 50 mM HEPES pH 7.0, 50 µM ZnCl2, 22 °C; remark: listed apart in the source
[8] = tested on: T2, IND-17; assay: as above; type: biochemical, Chryseobacterium sp.; settings: 50 mM HEPES pH 7.0, 50 µM ZnCl2, 22 °C; remark: listed apart in the source
[9] = tested on: T2, IND-17; assay: as above; type: biochemical, Chryseobacterium sp.; settings: 50 mM HEPES pH 7.0, 50 µM ZnCl2, 22 °C; remark: listed apart in the source
[10] = tested on: T1, CHM; assay: as above; type: biochemical, Chryseobacterium sp.; settings: 50 mM HEPES pH 7.0, 50 µM ZnCl2, 22 °C; remark: listed apart in the source
[11] = tested on: T2, IND-17; assay: as above; type: biochemical, Chryseobacterium sp.; settings: 50 mM HEPES pH 7.0, 50 µM ZnCl2, 22 °C; remark: listed apart in the source
[12] = tested on: T2, IND-17; assay: as above; type: biochemical, Chryseobacterium sp.; settings: 50 mM HEPES pH 7.0, 50 µM ZnCl2, 22 °C; remark: listed apart in the source
[13] = tested on: T1, CHM; assay: as above; type: biochemical, Chryseobacterium sp.; settings: 50 mM HEPES pH 7.0, 50 µM ZnCl2, 22 °C; remark: listed apart in the source

SMILES	MIC ([1]; Isolate No.=3-7-14) [µg/mL]	MIC ([1]; Isolate No.=3-12-27) [µg/mL]	MIC ([2]; Isolate No.=3-7-16) [µg/mL]	MIC ([3]; Isolate No.=2-2-6) [µg/mL]	MIC ([4]; Isolate No.=2-1-3) [µg/mL]	MIC ([4]; Isolate No.=2-12-28) [µg/mL]	MIC ([3]; Isolate No.=2-4-10) [µg/mL]	MIC ([4]; Isolate No.=2-4-11) [µg/mL]	MIC ([2]; Isolate No.=4-6-16) [µg/mL]	further results
CO/N=C(\C(=O)N[C@@H]1C(=O)N2C(C(=O)[O-])=C(C[N+]3(C)CCCC3)CS[C@H]12)c1csc(N)n1 [Cefepime]	8 (≈ 16.6 µM)	≤ 4	≤ 4	≤ 4	≤ 4	> 32	–	–	–	MIC ([4]; Isolate No.=2-12-31): 16 µg/mL (≈ 33.3 µM)
CC(C)(O/N=C(\C(=O)N[C@@H]1C(=O)N2C(C(=O)[O-])=C(C[n+]3ccccc3)CS[C@H]12)c1csc(N)n1)C(=O)O [Ceftazidime]	8 (≈ 14.6 µM)	4 (≈ 7.32 µM)	≤ 1	2 (≈ 3.66 µM)	4 (≈ 7.32 µM)	8 (≈ 14.6 µM)	4 (≈ 7.32 µM)	2 (≈ 3.66 µM)	–	Km [5]: 200 ± 41 µM
CO/N=C(\C(=O)N[C@@H]1C(=O)N2C(C(=O)O)=C(COC(N)=O)CS[C@H]12)c1ccco1 [Cefuroxime]	32 (≈ 75.4 µM)	–	32 (≈ 75.4 µM)	> 32	32 (≈ 75.4 µM)	–	–	> 32	–	Km [6]: 30 ± 5.8 µM; Km [5]: 76 ± 19 µM
NCC[C@H](O)C(=O)N[C@@H]1C[C@H](N)[C@@H](O[C@H]2O[C@H](CN)[C@@H](O)[C@H](O)[C@H]2O)[C@H](O)[C@H]1O[C@H]1O[C@H](CO)[C@@H](O)[C@H](N)[C@H]1O [Amikacin]	32 (≈ 54.6 µM)	≤ 8	32 (≈ 54.6 µM)	≤ 8	≤ 8	–	–	16 (≈ 27.3 µM)	≤ 8	MIC ([3]; Isolate No.=2-6-15): 32 µg/mL (≈ 54.6 µM); MIC ([4]; Isolate No.=2-8-21): 32 µg/mL (≈ 54.6 µM)
C[C@@H](O)[C@H]1C(=O)N2C(C(=O)O)=C(S[C@@H]3CN[C@H](C(=O)N(C)C)C3)[C@H](C)[C@H]12 [Meropenem]	8 (≈ 20.9 µM)	–	2 (≈ 5.22 µM)	> 8	≤ 1	> 8	–	2 (≈ 5.22 µM)	4 (≈ 10.4 µM)	Km [7]: 10 ± 2 µM; Km [8]: 258 ± 25 µM
Cc1nnc(SCC2=C(C(=O)O)N3C(=O)[C@@H](NC(=O)Cn4cnnn4)[C@H]3SC2)s1 [Cefazolin]	32 (≈ 70.4 µM)	–	32 (≈ 70.4 µM)	> 32	32 (≈ 70.4 µM)	–	–	> 32	> 32	Km [6]: 38 ± 12 µM; Km [5]: 167 ± 27 µM
O=C(O)c1cn(C2CC2)c2cc(N3CCNCC3)c(F)cc2c1=O [Ciprofloxacin]	2 (≈ 6.04 µM)	≤ 0.5	≤ 0.5	≤ 0.5	1 (≈ 3.02 µM)	2 (≈ 6.04 µM)	1 (≈ 3.02 µM)	–	–	MIC ([4]; Isolate No.=2-8-21): ≤ 0.5 µg/mL
CO[C@@]1(NC(=O)Cc2cccs2)C(=O)N2C(C(=O)O)=C(COC(N)=O)CS[C@@H]21 [Cefoxitin]	32 (≈ 74.9 µM)	–	8 (≈ 18.7 µM)	> 32	32 (≈ 74.9 µM)	> 32	32 (≈ 74.9 µM)	–	16 (≈ 37.4 µM)	MIC ([3]; Isolate No.=2-6-15): 16 µg/mL (≈ 37.4 µM)
NC[C@H]1O[C@H](O[C@H]2[C@H](O)[C@@H](O[C@H]3O[C@H](CO)[C@@H](O)[C@H](N)[C@H]3O)[C@H](N)C[C@@H]2N)[C@H](N)C[C@@H]1O [Tobramycin]	8 (≈ 17.1 µM)	–	8 (≈ 17.1 µM)	> 8	≤ 4	–	–	–	–	MIC ([4]; Isolate No.=2-8-21): 8 µg/mL (≈ 17.1 µM)
O=C(Cc1cccs1)N[C@@H]1C(=O)N2C(C(=O)O)=C(/C=C/c3ccc([N+](=O)[O-])cc3[N+](=O)[O-])CS[C@H]12 [Nitrocefin]	–	–	–	–	–	–	–	–	–	Km [9]: 152 ± 4.7 µM; Km [10]: 153 ± 10 µM
CCN1CCN(C(=O)N[C@@H](C(=O)N[C@@H]2C(=O)N3[C@@H]2SC(C)(C)[C@@H]3C(=O)O)c2ccccc2)C(=O)C1=O [Piperacillin]	32 (≈ 61.8 µM)	≤ 16	≤ 16	32 (≈ 61.8 µM)	64 (≈ 124 µM)	32 (≈ 61.8 µM)	≤ 16	≤ 16	–	MIC ([3]; Isolate No.=2-6-15): 128 µg/mL (≈ 247 µM)
CO[C@@]1(NC(=O)C2SC(=C(C(N)=O)C(=O)O)S2)C(=O)N2C(C(=O)O)=C(CSc3nnnn3C)CS[C@@H]21 (some centres unmarked) [Cefotetan Na]	32 (≈ 55.6 µM)	–	32 (≈ 55.6 µM)	> 32	4 (≈ 6.95 µM)	–	–	≤ 8	> 32	–
C[C@H]1[C@H](NC(=O)/C(=N\OC(C)(C)C(=O)O)c2csc(N)n2)C(=O)N1S(=O)(=O)O [Aztreonam]	32 (≈ 73.5 µM)	–	32 (≈ 73.5 µM)	> 32	16 (≈ 36.7 µM)	32 (≈ 73.5 µM)	–	≤ 8	> 32	–
CC1(C)S[C@@H]2[C@H](NC(=O)[C@H](N)c3ccccc3)C(=O)N2[C@H]1C(=O)O [Ampicillin]	–	–	–	–	–	–	–	–	–	Km [11]: 470 ± 108 µM
C[C@@H](O)[C@H]1C(=O)N2C(C(=O)O)=C(SCCN=CN)C[C@H]12 [Imipenem]	16 (≈ 53.4 µM)	–	4 (≈ 13.4 µM)	8 (≈ 26.7 µM)	16 (≈ 53.4 µM)	–	≤ 2	> 16	–	Km [12]: 185 ± 19 µM; Km [13]: 389 ± 48 µM; MIC ([3]; Isolate No.=2-8-20): 4 µg/mL (≈ 13.4 µM)
COCC1=C(C(=O)O)N2C(=O)[C@@H](NC(=O)/C(=N\OC)c3csc(N)n3)[C@H]2SC1 [Cefpodoxime]	16 (≈ 37.4 µM)	–	4 (≈ 9.36 µM)	> 16	16 (≈ 37.4 µM)	–	–	> 16	8 (≈ 18.7 µM)	–
O=C1CN(/N=C/c2ccc([N+](=O)[O-])o2)C(=O)N1 [Nitrofurantoin]	128 (≈ 537 µM)	64 (≈ 269 µM)	64 (≈ 269 µM)	64 (≈ 269 µM)	128 (≈ 537 µM)	–	32 (≈ 134 µM)	> 128	≤ 16	–
CO/N=C(\C(=O)N[C@@H]1C(=O)N2C(C(=O)O)=C(CSc3nc(=O)c(O)nn3C)CS[C@H]12)c1csc(N)n1 [Ceftriaxone]	64 (≈ 115 µM)	–	4 (≈ 7.21 µM)	> 64	32 (≈ 57.7 µM)	> 64	64 (≈ 115 µM)	–	8 (≈ 14.4 µM)	–

From publication PMC10094639, “Novel Antibiotic Resistance Genes Identified by Functional Gene Library Screening in Stenotrophomonas maltophilia and Chryseobacterium spp. Bacteria of Soil Origin” (International Journal of Molecular Sciences, 2023)
